Measured values reported in US9540427B2, “Peptide-based stat inhibitor” (The United States of America, as represented by the …, priority 2007, dated 2017).
Square brackets hold non-standard residues; d marks the D form. Ends that are not written are not given here. Peptide text beside a SMILES is read from it. * marks the point of attachment. Phe(4-CN) = N#Cc1ccc(C[C@H](N)C(=O)O)cc1; Palmitoyl = CCCCCCCCCCCCCCCC(=O)*; rhodamine = not defined here; Nle = CCCC[C@H](N)C(=O)O; Dab = NCC[C@H](N)C(=O)O

How the values were obtained:
[1] = target: T1, STAT3 tagged with eGFP (eGFP-STAT3) (Homo sapiens, UniProt P40763); test: FRET in living cells expressing eGFP-STAT3; assay type: binding; settings: HEK293 cells stably expressing eGFP-STAT3, 5 μM, one hour
T1 construct: expressed in transfected cells; host or cells: HEK293
T1 sequence (P40763 whole entry): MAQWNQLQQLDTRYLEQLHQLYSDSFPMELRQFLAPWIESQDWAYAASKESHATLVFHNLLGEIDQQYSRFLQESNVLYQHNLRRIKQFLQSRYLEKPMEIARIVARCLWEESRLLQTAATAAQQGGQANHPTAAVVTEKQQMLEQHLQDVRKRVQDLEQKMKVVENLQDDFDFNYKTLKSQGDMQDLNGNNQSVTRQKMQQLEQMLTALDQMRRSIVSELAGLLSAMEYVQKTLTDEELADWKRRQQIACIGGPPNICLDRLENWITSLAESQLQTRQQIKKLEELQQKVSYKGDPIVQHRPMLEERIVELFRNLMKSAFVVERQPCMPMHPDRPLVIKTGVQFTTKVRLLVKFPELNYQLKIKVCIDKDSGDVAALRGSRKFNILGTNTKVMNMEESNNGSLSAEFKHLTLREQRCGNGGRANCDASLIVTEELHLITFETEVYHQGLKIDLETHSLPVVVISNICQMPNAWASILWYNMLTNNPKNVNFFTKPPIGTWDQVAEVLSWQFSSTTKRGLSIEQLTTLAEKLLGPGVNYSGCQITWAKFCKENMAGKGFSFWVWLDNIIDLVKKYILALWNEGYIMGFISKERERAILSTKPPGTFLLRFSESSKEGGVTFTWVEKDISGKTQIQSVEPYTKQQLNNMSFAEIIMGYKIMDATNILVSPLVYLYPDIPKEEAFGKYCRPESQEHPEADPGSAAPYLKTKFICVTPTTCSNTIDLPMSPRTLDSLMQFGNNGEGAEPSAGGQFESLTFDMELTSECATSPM
Procedure: Fluorescence Resonance Energy Transfer (FRET) method was used to determine whether STAT3-HEL2A-2 (see Example 3) interacts with STAT3 in living cells. HEK293 cells stably expressing STAT3 tagged with eGFP on its N-terminus (eGFP-STAT3) were treated for one hour with 5 μM of STAT3-HEL2A-2 labeled with rhodamine. An additional cysteine residue was positioned at the C-terminus of penetratin to facilitate labeling. Excitation of eGFP (donor) was facilitated using a 488-nm light source, and the emission spectrum was detected. In the absence of energy transfer between eGFP and rhodamine, excitation of eGFP would lead to an emission peak at 520-540 nm, whereas energy transfer from eGFP to an adjacent rhodamine fluorochrome acceptor would cause an emission in the 560-600 nm range. […] The photobleaching of rhodamine restored the fluorescence of eGFP.
Cells expressing eGFP-STAT3, eGFP-STAT1, or eGFP were treated with rhodamine-labeled STAT3-HEL2A-2 (see Example 6). Excitation of eGFP was facilitated, and the emission spectrum detected, in accordance with the methods described in Example 6. FRET efficiency was calculated using equation 1-D0/D1, where D0 is fluorescence intensity of eGFP before rhodamine photobleaching and D1 is the intensity after rhodamine photobleaching.

MCF7 breast cancer cells = test: MTT assay of growth inhibition / cytotoxicity in MCF7 cells; assay type: cell-based, human; settings: for Cell growth, % of control: 5 μM, MTT assay 48 hours after exposure
Procedure: Activity was determined by MTT assay 48 hours after exposure of the MCF7 cells to the test compounds.
Peptides were constructed based on variations of the amino acid sequence of the second helix of STAT1 and STAT5a. ε-palmitoyl lysine was substituted for penetratin as a cell-penetrating motif Several residues of penetratin sequence were preserved in the lipopeptide derivatives, which served as a linking sequence. The peptides and peptidomimetics were tested for growth inhibitory and cytotoxic activity in MCF7 cells using an MTT assay as described in Example 2.
Retro-inverso peptide analogues were prepared comprising variants of the sequence of helix 2 of STAT3. STAT3-Hel2A-2 (see Example 3) was used as a starting sequence, in which all but three residues of the original penetratin sequence was replaced with palmitic acid. The variants were produced by systematically truncating and substituting the base sequence. The compounds were used to treat MCF7 breast cancer cells. IC50 values were determined 48 hours after exposing the cells to the test compounds.

STAT3 signaling = test: Luciferase reporter assay (Mercury JAK-STAT Pathway Profiling system, GAS or STAT3 elements) in MCF-7 cells; assay type: cell-based, human; design: concentration or dose not given beside the values; settings: luciferase reporter with GAS or STAT3 elements, basal expression, within one hour after treatment
Procedure: Selected peptides were tested for inhibition of STAT3 signaling in breast cancer cell lines by luciferase reporter assay. The assay employed the Mercury JAK-STAT Pathway Profiling system (Clontech), which includes the enhancer elements GAS (interferon-γ activating sequence) or STAT3 (a modified GAS sequence) introduced as three tandem copies upstream of the TA promoter in a luciferase reporter vector. STAT3 helix 2 analogs reduced basal expression of the reporter construct containing the GAS, or STAT3 elements in MCF-7 cells within one hour after treatment.

STAT1 = target: T2, STAT1 (Homo sapiens, UniProt P42224); test: STAT1 tyrosine phosphorylation and expression in cytokine-treated breast cancer cells; assay type: cell-based; settings: pretreatment 1 hour
T2 construct: endogenous in cells; host or cells: MCF-7 and MDA-MB-231
T2 sequence (P42224 1-750): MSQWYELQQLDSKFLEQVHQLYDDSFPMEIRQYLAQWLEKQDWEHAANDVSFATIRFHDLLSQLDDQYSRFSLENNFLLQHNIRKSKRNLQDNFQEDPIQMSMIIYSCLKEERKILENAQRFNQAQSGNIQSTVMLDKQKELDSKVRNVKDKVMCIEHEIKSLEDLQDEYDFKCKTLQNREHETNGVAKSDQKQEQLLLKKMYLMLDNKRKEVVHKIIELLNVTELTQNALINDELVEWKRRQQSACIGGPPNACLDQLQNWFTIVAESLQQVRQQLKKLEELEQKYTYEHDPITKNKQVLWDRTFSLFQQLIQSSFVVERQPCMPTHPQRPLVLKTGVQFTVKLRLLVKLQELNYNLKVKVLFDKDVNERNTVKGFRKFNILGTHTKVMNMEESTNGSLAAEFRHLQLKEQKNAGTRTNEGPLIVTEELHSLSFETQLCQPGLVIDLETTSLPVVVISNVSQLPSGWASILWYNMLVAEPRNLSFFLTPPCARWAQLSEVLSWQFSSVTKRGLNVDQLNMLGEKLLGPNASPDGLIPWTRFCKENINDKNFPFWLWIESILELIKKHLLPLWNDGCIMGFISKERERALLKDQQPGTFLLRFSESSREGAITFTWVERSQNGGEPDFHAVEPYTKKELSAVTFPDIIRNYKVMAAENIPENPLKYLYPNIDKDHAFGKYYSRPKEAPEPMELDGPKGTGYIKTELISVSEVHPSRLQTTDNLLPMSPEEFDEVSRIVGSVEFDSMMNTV
Procedure: (§1) MCF-7 and MDA-MB-231 cells were treated with Leukemia Inhibitory Factor (LIF) to activate STAT3 and with Interferon gamma (IFN-γ) to activate STAT1 signaling. In MCF-7 cells, LIF induced selective STAT3 tyrosine phosphorylation and IFN-γ induced selective STAT1 tyrosine phosphorylation. In MDA-MB-231 cells, however, each cytokine induced both STAT3 and STAT1 tyrosine phosphorylation.

[2] = system: STAT3-dependent transcription (APRE reporter); test: APRE luciferase reporter in MCF-7 cells activated by LIF; assay type: cell-based, human; settings: basal and LIF-stimulated
Excerpt: (§2) To evaluate effects of inhibitors on cytokine-activated transcription, luciferase reporter vectors APRE and ISRE were employed (Takeda et al., J. Endocrinol. 159, 323-330 (1998); Ivanova et al., J. Mol. Biol. 340, 641-653 (2004)). APRE was activated in MCF-7 cells by LIF.

STAT3 = target: T3, STAT3 (Homo sapiens, UniProt P40763); test: STAT3 tyrosine phosphorylation and expression in cytokine-treated breast cancer cells; assay type: cell-based; settings: pretreatment 1 hour
T3 construct: endogenous in cells; host or cells: MCF-7 and MDA-MB-231
T3 sequence (P40763 whole entry): as the sequence (P40763 whole entry) above
Procedure: as §1

[3] = system: STAT1-dependent transcription (ISRE reporter); test: ISRE luciferase reporter in MCF-7 cells activated by IFN-γ; assay type: cell-based, human; settings: IFN-γ-stimulated
Excerpt: as §2

[4] = MCF-7 and MDA-MB-231 cells treated with LIF or IFN-γ

Row | Compound | Cell growth, % of control (MCF7 breast cancer cells) [%] | Activity, % of control (STAT3 signaling) [%] | further results
1 | rhodamine-labeled STAT3-HEL2A-2: STAT3-HEL2A-2 labeled with rhodamine via an additional cysteine residue at the C-terminus of penetratin (LDTRYLEQLHKLYRQIKIWFPNRR[Nle]KWKKC(rhodamine); reading uncertain) | – | – | Quenching of the normal fluorescence of eGFP [1]: 90%
2 | DTRYLEQLHDabLYS (DTRYLEQLH[Dab]LYS; also: penetratin fused C-terminally) [Hel2F-Pen, penetratin fused to the C-terminus] | 60 ± 5 | – | –
3 | DTRYLQELHKLYS (DTRYLQELHKLYS-penetratin) [Hel2E-Pen, penetratin fused to the C-terminus] | 46 ± 4 | – | –
4 | DTKYLEQLHKLYS (DTKYLEQLHKLYS-penetratin) [Hel2D-Pen, penetratin fused to the C-terminus] | 42 ± 4 | – | –
5 | LDTKYLEQLHDabLY (LDTKYLEQLH[Dab]LY; also: penetratin fused C-terminally) [Hel2K-Pen, penetratin fused to the C-terminus] | 8 ± 2 | – | –
6 | DTRYLEQLHKLY (DTRYLEQLHKLY-penetratin) [Hel2A-2a-Pen, penetratin fused to the C-terminus] | 65 ± 5 | – | –
7 | DTRYLEQLHDabLY (DTRYLEQLH[Dab]LY; also: penetratin fused C-terminally) [Hel2I-Pen, penetratin fused to the C-terminus] | 25 ± 4 | 53 ± 6 | –
8 | DTRYLEQLHKLYS (DTRYLEQLHKLYS-penetratin) [Hel2A-Pen, penetratin fused to the C-terminus] | 44 ± 5 | 100 ± 9 | –
9 | Ac-DTRYLEQLHELY (Ac-DTRYLEQLHELY-penetratin; also: penetratin fused C-terminally) [Hel2A-4-Pen, penetratin fused to the C-terminus] | 91 ± 6 | – | –
10 | DTRYLEQLHKLCyPheS (DTRYLEQLHKL[Phe(4-CN)]S; also: penetratin fused C-terminally) [Hel2C-Pen, CyPhe is 4-cyano phenylalanine; penetratin fused to the C-terminus] | 38 ± 4 | – | –
11 | LDTRYLEQLHQLYS (LDTRYLEQLHQLYS-penetratin) [Hel2-Pen] | 73 ± 5 | 56 ± 5 | –
12 | LDTRYLEQLHKLYS (LDTRYLEQLHKLYS-penetratin) [Hel2B-Pen, penetratin fused to the C-terminus] | 82 ± 6 | 100 ± 9 | –
13 | LDTRYLEQLHDabLY (LDTRYLEQLH[Dab]LY; also: penetratin fused C-terminally) [Hel2H-Pen, penetratin fused to the C-terminus] | 45 ± 4 | 43 ± 4 | –
14 | Ac-DTRYLEQLHKLY (Ac-DTRYLEQLHKLY-penetratin; also: penetratin fused C-terminally) [Ac-Hel2A-2a-Pen, penetratin fused to the C-terminus] | 45 ± 5 | – | –
15 | CCCCCCCCCCCCCCCC(=O)N[C@H](CCCCN)C(=O)N[C@H](Cc1ccc(O)cc1)C(=O)N[C@H](CC(C)C)C(=O)N[C@H](CCCCN)C(=O)N[C@H](Cc1c[nH]cn1)C(=O)N[C@H](CC(C)C)C(=O)N[C@H](CCC(N)=O)C(=O)N[C@H](CCC(=O)O)C(=O)N[C@H](CC(C)C)C(=O)N[C@H](Cc1ccc(O)cc1)C(=O)N[C@H](CCCNC(=N)N)C(=O)N[C@@H](C(=O)N[C@H](CC(=O)O)C(N)=O)[C@H](C)O [St3-H2a-2a-Pa17] (Palmitoyl-[dK][dY][dL][dK][dH][dL][dQ][dE][dL][dY][dR][dT][dD]-NH2; C-terminus assumed) | – | – | IC50 (MCF7 breast cancer cells; read-out: IC50 (concentration causing 50% growth inhibition), 48 hours after exposure, Table 8): 1800 nM
16 | DSKFLEQVHKLY-penetratin [STAT1-Hel2A-2] | – | – | Effect on expression level of STAT1 protein (STAT1; MCF-7 and MDA-MB-231 cells): did not change; Effect on tyrosine phosphorylation of STAT1 (STAT1; [4]): did not affect; Effect on APRE reporter expression [2]: inhibited both basal and stimulated expression; Effect on expression level of STAT3 protein (STAT3; MCF-7 and MDA-MB-231 cells): did not change; Effect on tyrosine phosphorylation of STAT3 (STAT3; [4]): did not affect; Effect on ISRE reporter activation [3]: prevented cytokine-stimulated reporter activation
17 | Ac-ATRYLEQLHKLY (Ac-ATRYLEQLHKLY-penetratin; also: penetratin fused C-terminally) [Hel2A-5-Pen, penetratin fused to the C-terminus] | 85 ± 5 | – | –
18 | Ac-DTRYLEQLHALY (Ac-DTRYLEQLHALY-penetratin; also: penetratin fused C-terminally) [Hel2A-3-Pen, penetratin fused to the C-terminus] | 93 ± 6 | 89 ± 9 | –
